T/C data for 24 compounds are collected here from PubChem BioAssay AID330 (DTP/NCI, 2004).

For this experiment, the system named is P388 leukemia ip, CD2F1 mice, survival T/C. Description: NCI In Vivo Anticancer Drug Screen. Data for tumor model P388 Leukemia (intraperitoneal) in CD2F1 (CDF1) mice. The settings on record: endpoint: median survival time, higher = longer survival. In a few lines:
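Mice carrying the transplanted tumor received test compound or vehicle. Survival was recorded in each group, and the value is the treated-group measurement divided by that of the vehicle-treated control group.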

The mark [1] stands for this setting: dose: 50.0 mg/kg/injection, schedule: Q01DX009 (ip), vehicle: saline with Tween-80.
Where [2] appears, read: dose: 60.0 mg/kg/injection, schedule: Q01DX005 (ip), vehicle: saline with Tween-80.
[3] abbreviates: dose: 120.0 mg/kg/injection, schedule: Q01DX005 (ip), vehicle: saline with Tween-80.
Setting [4] is: dose: 240.0 mg/kg/injection, schedule: Q01DX005 (ip), vehicle: saline with Tween-80.
[5] abbreviates: dose: 50.0 mg/kg/injection, schedule: Q01DX005 (ip), vehicle: saline with Tween-80.
The mark [6] stands for this setting: dose: 100.0 mg/kg/injection, schedule: Q01DX005 (ip), vehicle: saline with Tween-80.
[7] abbreviates: dose: 200.0 mg/kg/injection, schedule: Q01DX005 (ip), vehicle: saline with Tween-80.
Setting [8] is: dose: 15.0 mg/kg/injection, schedule: Q01DX005 (ip), vehicle: Klucel (hydroxypropylcellulose) (HPC).
[9] abbreviates: dose: 30.0 mg/kg/injection, schedule: Q01DX005 (ip), vehicle: Klucel (hydroxypropylcellulose) (HPC).
[10] abbreviates: dose: 60.0 mg/kg/injection, schedule: Q01DX005 (ip), vehicle: Klucel (hydroxypropylcellulose) (HPC).

Structures are written as SMILES. Several values for one entry are separate records, joined by “and”; a condition that tells them apart may be missing. Equal values may be shown once. Inconclusive results and toxic doses are left out.

Take `N#C[C@@H]1C2C=CC(CC2)[C@H]1C#N`: the T/C (dose: 1.25 mg/kg/injection, schedule: Q01DX009 (ip), vehicle: saline with Tween-80) was 100 % of control; the T/C (dose: 1.25 mg/kg/injection, schedule: Q04DX003 (ip), vehicle: saline with Tween-80) is 91 % of control; the T/C (dose: 2.5 mg/kg/injection, schedule: Q01DX009 (ip), vehicle: saline with Tween-80) was 112 % of control; the T/C (dose: 2.5 mg/kg/injection, schedule: Q04DX003 (ip), vehicle: saline with Tween-80) is 104 % of control; the T/C (dose: 5.0 mg/kg/injection, schedule: Q04DX003 (ip), vehicle: saline with Tween-80) was 91 % of control.
Turning to `CC1=CC(C)(C)Nc2ccc(CSc3ccccc3)cc21`, the T/C was 111 % of control (dose: 50.0 mg/kg/injection, schedule: Q01DX009 (ip), vehicle: DMSO); 104 % of control under setting [1]; 110 % of control (dose: 100.0 mg/kg/injection, schedule: Q01DX009 (ip), vehicle: saline with Tween-80); 96 % of control (dose: 200.0 mg/kg/injection, schedule: Q01DX009 (ip), vehicle: saline with Tween-80).
Regarding `CNCCCCCc1cc(-c2ccc([N+](=O)[O-])cc2)on1`, the T/C by setting is: (dose: 100.0 mg/kg/injection, schedule: Q04DX003 (ip), vehicle: saline with Tween-80) 95 % of control; (dose: 200.0 mg/kg/injection, schedule: Q04DX003 (ip), vehicle: saline with Tween-80) 100 % of control.
In the case of `CCNC(=O)c1ccccc1S(C)=O` (centres undefined), the T/C by setting is: under setting [2], 99 % of control; under setting [3], 111 % of control; under setting [4], 104 % of control.
For `Cc1nn(C(=S)S)c(C)c1N=Nc1ccc(O)cc1`, the T/C is, setting by setting: under setting [5], 100 % of control; under setting [6], 102 % of control; under setting [7], 101 % of control.
Turning to `COc1c(O)c(O)cc2c1-c1ccc(OC)c(=O)cc1C(NC(C)=O)CC2` (centres undefined), the T/C by setting is: (dose: 1.25 mg/kg/injection, schedule: Q01DX009 (ip), vehicle: water) 114 % of control; (dose: 2.5 mg/kg/injection, schedule: Q01DX009 (ip), vehicle: water) 117 % of control; (dose: 20.0 mg/kg/injection, schedule: Q01DX009 (ip), vehicle: water) 166 % of control and 177 % of control; (dose: 40.0 mg/kg/injection, schedule: Q01DX009 (ip), vehicle: water) 204 % of control.
For the compound `C(=C\c1cc2cc(C3=NCCN3)ccc2o1)/c1cc2cc(C3=NCCN3)ccc2o1`, the T/C is, setting by setting: (dose: 25.0 mg/kg/injection, schedule: Q04DX003 (ip), vehicle: suspension in saline) 154 % of control; (dose: 50.0 mg/kg/injection, schedule: Q04DX003 (ip), vehicle: suspension in saline) 152 % of control; (dose: 100.0 mg/kg/injection, schedule: Q04DX003 (ip), vehicle: suspension in saline) 101 % of control.
In the case of `COC(=O)c1nc(N)nc(C(=O)OC)c1C(=O)c1ccc(C)cc1`, the T/C runs as follows: under setting [2], 98 % of control; under setting [3], 100 % of control.
As for `COc1ccccc1N=C(NC#N)C(c1ccccc1)c1ccccc1`, the T/C reads like this: (dose: 100.0 mg/kg/injection, schedule: Q01DX001 (ip), vehicle: saline with Tween-80) 99 % of control; (dose: 200.0 mg/kg/injection, schedule: Q01DX001 (ip), vehicle: saline with Tween-80) 97 % of control; (dose: 400.0 mg/kg/injection, schedule: Q01DX001 (ip), vehicle: saline with Tween-80) 93 % of control.
On to `N#CCC(O)(/C=C/c1ccccc1)c1ccccc1` (centres undefined), for which the T/C by setting is: (dose: 100.0 mg/kg/injection, schedule: Q01DX009 (ip), vehicle: saline sonified) 91 % of control; (dose: 200.0 mg/kg/injection, schedule: Q01DX009 (ip), vehicle: saline sonified) 86 % of control; (dose: 400.0 mg/kg/injection, schedule: Q01DX009 (ip), vehicle: saline sonified) 95 % of control.
In the case of `COc1ccc(COC(=O)Nc2ccccc2F)c(OC)c1OC`, the T/C by setting is: under setting [5], 91 % of control; under setting [6], 101 % of control; under setting [7], 100 % of control.
For `CCCCOC1OCN(C2CCCCC2)CC1(C)C` (centres undefined), the T/C was 104 % of control and 121 % of control under setting [1]; 120 % of control (dose: 400.0 mg/kg/injection, schedule: Q01DX009 (ip), vehicle: saline with Tween-80).
For `COc1ccc2c(ccc[n+]2C)c1`, the T/C reads like this: (dose: 5.0 mg/kg/injection, schedule: Q01DX009 (ip), vehicle: saline with Tween-80) 100 % of control; (dose: 10.0 mg/kg/injection, schedule: Q01DX009 (ip), vehicle: saline with Tween-80) 110 % of control; (dose: 20.0 mg/kg/injection, schedule: Q01DX009 (ip), vehicle: saline with Tween-80) 110 % of control.
As for `Cc1cc(NC(=O)C(=O)CC(=O)c2cccnc2)no1`, the T/C runs as follows: under setting [5], 102 % of control; under setting [6], 101 % of control; under setting [7], 101 % of control.
As to `c1csc(SSc2nccs2)n1`, the T/C is, setting by setting: (dose: 25.0 mg/kg/injection, schedule: Q04DX002 (ip), vehicle: saline with Tween-80) 104 % of control; (dose: 50.0 mg/kg/injection, schedule: Q04DX002 (ip), vehicle: saline with Tween-80) 103 % of control; (dose: 100.0 mg/kg/injection, schedule: Q04DX002 (ip), vehicle: saline with Tween-80) 103 % of control and 105 % of control.
On to `CC(C)N1COCO[C@H]2CCC[C@@H]21`, for which the T/C (dose: 25.0 mg/kg/injection, schedule: Q01DX005 (ip), vehicle: Klucel (hydroxypropylcellulose) (HPC)) was 113 % of control; the T/C (dose: 100.0 mg/kg/injection, schedule: Q01DX001 (ip), vehicle: Klucel (hydroxypropylcellulose) (HPC)) was 93 % of control; the T/C (dose: 100.0 mg/kg/injection, schedule: Q01DX005 (ip), vehicle: Klucel (hydroxypropylcellulose) (HPC)) was 113 % of control; the T/C (dose: 200.0 mg/kg/injection, schedule: Q01DX001 (ip), vehicle: Klucel (hydroxypropylcellulose) (HPC)) was 90 % of control.
On to `OC1CCCC1NC1CCCCC1` (centres undefined), for which the T/C under setting [8] was 102 % of control, the T/C under setting [9] is 102 % of control and the T/C under setting [10] is 104 % of control.
Take `[C-]#[N+]C([N+]#[C-])=C(C)OCC`: the T/C is, setting by setting: (dose: 6.25 mg/kg/injection, schedule: Q01DX009 (ip), vehicle: saline with Tween-80) 98 % of control; (dose: 12.5 mg/kg/injection, schedule: Q01DX009 (ip), vehicle: saline with Tween-80) 89 % of control; (dose: 25.0 mg/kg/injection, schedule: Q01DX009 (ip), vehicle: saline with Tween-80) 105 % of control; (dose: 100.0 mg/kg/injection, schedule: Q01DX009 (ip), vehicle: saline) 101 % of control.
Turning to `O=C(O)CCC12CCC(=O)N1Cc1ccccc1C2=O` (centres undefined), the T/C under setting [2] is 107 % of control, the T/C under setting [3] was 110 % of control and the T/C under setting [4] was 109 % of control.
With `Cc1nc2ccccc2nc1C1=C(O)c2ccccc2CC1=O`, the T/C under setting [2] is 95 % of control, the T/C under setting [3] was 90 % of control and the T/C under setting [4] is 93 % of control.
Take `CC(C)C(N)C(=O)NC(C(=O)NS(=O)(=O)c1ccc(N)cc1)C(C)C` (centres undefined): the T/C (dose: 50.0 mg/kg/injection, schedule: Q01DX005 (ip), vehicle: saline) was 99 % of control; the T/C (dose: 100.0 mg/kg/injection, schedule: Q01DX005 (ip), vehicle: saline) was 93 % of control; the T/C (dose: 200.0 mg/kg/injection, schedule: Q01DX005 (ip), vehicle: saline) was 98 % of control.
As for `Nc1c(-c2ncc[nH]2)[nH]c2cc(-c3ncc[nH]3)ccc12`, the T/C under setting [8] was 97 % of control; the T/C under setting [9] is 100 % of control; the T/C under setting [10] was 99 % of control and 101 % of control.
For `Cc1nc2oc(=O)cc(C)c2c(=O)[nH]1`, the T/C runs as follows: under setting [10], 91 % of control; (dose: 120.0 mg/kg/injection, schedule: Q01DX005 (ip), vehicle: Klucel (hydroxypropylcellulose) (HPC)) 96 % of control.
With `CCOC(=O)c1ccc(NC(=O)Oc2cc(=O)oc3ccccc23)cc1`, the T/C is 91 % of control under setting [2], 94 % of control under setting [3] and 99 % of control under setting [4].
